Our source for the AC50 values is ChEMBL document CHEMBL5291721, “A preclinical secondary pharmacology resource illuminates target-adverse drug reaction associations of marketed drugs” (Nat Commun, 2023).

One assay concerns the target D(1A) dopamine receptor (Homo sapiens, UniProt P21728). It counts as functional, cell-based.
In assay [1] the target is Beta-2 adrenergic receptor (Homo sapiens, UniProt P07550).
The target in assay [2] is Voltage-dependent L-type calcium channel subunit alpha-1C (Rattus norvegicus, UniProt P22002). Type of assay: functional.
The next assay addresses Cannabinoid receptor 1 (Homo sapiens, UniProt P21554). It counts as functional, cell-based.
Assay [3] has as its target Kappa-type opioid receptor (Homo sapiens, UniProt P41145).
Assay [4] concerns the target Growth hormone secretagogue receptor type 1 (Homo sapiens, UniProt Q92847).
Assay [5] concerns the target Voltage-gated inwardly rectifying potassium channel KCNH2 (Homo sapiens, UniProt Q12809). It counts as functional. The note with it: read-out: AC50.
Assay [6] concerns the target T1, 5-hydroxytryptamine receptor 3A (Homo sapiens, UniProt P46098).
T1 sequence (P46098 whole entry): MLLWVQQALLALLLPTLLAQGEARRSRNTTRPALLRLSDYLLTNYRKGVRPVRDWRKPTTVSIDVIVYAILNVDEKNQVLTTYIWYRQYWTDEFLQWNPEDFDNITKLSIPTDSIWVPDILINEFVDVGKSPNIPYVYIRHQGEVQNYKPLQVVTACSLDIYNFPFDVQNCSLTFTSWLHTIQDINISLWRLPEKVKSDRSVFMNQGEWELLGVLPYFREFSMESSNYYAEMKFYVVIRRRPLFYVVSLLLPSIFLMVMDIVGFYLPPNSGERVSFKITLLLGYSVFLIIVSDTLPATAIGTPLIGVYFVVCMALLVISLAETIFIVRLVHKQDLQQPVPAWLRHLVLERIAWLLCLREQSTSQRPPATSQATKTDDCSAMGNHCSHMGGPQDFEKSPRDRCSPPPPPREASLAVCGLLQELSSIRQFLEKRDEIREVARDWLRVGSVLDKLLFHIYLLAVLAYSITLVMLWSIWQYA
It counts as functional.

A further assay deals with Vasopressin V1a receptor (Homo sapiens, UniProt P37288).
Assay [7] addresses T2, Type-1 angiotensin II receptor (Homo sapiens, UniProt P30556).
T2 sequence (P30556 whole entry): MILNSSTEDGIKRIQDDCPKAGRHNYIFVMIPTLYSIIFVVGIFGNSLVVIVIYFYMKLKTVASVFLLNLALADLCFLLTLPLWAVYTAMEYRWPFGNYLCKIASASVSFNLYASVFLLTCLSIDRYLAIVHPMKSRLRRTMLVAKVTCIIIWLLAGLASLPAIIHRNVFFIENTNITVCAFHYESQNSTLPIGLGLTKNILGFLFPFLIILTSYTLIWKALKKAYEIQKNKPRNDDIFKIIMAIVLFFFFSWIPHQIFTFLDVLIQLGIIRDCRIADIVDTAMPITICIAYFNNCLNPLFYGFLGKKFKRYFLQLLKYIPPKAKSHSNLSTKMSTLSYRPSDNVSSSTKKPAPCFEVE

The next assay concerns the target D(3) dopamine receptor (Homo sapiens, UniProt P35462).
For assay [8], the target named is T3, Muscarinic acetylcholine receptor M1 (Homo sapiens, UniProt P11229).
T3 sequence (P11229 whole entry): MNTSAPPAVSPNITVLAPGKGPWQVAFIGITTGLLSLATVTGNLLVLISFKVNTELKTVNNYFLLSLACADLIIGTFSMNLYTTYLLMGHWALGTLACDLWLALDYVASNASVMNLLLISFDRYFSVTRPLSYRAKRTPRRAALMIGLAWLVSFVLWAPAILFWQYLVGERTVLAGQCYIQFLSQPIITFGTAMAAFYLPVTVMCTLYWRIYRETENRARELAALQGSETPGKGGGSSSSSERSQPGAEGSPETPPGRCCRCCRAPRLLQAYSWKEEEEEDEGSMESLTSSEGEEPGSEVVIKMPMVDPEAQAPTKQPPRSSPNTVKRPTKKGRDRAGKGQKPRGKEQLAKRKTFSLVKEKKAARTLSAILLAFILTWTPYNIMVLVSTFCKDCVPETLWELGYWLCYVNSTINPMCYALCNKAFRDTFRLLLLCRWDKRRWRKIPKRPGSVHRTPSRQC
It counts as functional.

The target of assay [9] is T4, Gamma-aminobutyric acid receptor subunit alpha-1 (Rattus norvegicus, UniProt P62813). It counts as functional.
For assay [10], the target named is T5, Alpha-2A adrenergic receptor (Homo sapiens, UniProt P08913).
T5 sequence (P08913 whole entry): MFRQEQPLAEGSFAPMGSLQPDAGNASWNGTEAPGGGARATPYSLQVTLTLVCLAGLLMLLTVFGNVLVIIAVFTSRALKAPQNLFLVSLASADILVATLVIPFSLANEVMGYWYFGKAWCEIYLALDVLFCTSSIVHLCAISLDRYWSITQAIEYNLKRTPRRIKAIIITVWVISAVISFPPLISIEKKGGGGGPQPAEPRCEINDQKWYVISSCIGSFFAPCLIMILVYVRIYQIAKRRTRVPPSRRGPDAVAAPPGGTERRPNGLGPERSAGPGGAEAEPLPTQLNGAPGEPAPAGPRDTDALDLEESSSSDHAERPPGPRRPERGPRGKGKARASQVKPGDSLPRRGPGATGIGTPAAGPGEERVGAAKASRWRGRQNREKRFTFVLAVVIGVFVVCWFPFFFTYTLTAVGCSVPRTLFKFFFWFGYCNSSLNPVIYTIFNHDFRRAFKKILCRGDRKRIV
Type of assay: functional, cell-based.

The target in assay [11] is T4, Gamma-aminobutyric acid receptor subunit alpha-1.
Assay [12] concerns the target Sodium-dependent dopamine transporter (Homo sapiens, UniProt Q01959).

Molecules are shown by their SMILES. Where a SMILES comes first, the peptide text is derived from it. Where only a bound is given, the exact number is not on record here.
Note: assay procedure not described here.

D(3) dopamine receptor, sequence (P35462 whole entry): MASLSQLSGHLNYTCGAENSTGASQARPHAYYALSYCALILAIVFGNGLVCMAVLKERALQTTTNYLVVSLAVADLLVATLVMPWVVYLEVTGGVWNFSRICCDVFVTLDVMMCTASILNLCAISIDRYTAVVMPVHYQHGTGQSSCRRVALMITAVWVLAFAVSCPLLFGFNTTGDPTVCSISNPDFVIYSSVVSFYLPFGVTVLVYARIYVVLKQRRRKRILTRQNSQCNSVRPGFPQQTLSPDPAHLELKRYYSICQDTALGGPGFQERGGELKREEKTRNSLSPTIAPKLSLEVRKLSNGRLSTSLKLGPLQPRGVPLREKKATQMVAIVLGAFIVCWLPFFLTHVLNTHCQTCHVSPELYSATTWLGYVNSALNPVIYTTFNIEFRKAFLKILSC
D(1A) dopamine receptor, sequence (P21728 whole entry): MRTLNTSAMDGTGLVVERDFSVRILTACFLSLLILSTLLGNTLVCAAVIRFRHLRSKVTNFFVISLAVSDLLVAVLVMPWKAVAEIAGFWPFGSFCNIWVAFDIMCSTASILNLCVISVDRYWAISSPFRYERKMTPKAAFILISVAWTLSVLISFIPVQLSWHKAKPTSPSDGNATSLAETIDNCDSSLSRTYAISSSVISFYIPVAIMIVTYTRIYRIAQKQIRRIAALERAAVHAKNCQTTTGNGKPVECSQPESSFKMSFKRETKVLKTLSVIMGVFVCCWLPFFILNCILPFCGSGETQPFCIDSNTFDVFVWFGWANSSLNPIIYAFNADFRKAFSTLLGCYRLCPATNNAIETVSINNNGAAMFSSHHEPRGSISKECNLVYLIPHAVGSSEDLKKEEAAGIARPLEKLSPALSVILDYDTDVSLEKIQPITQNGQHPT
Voltage-gated inwardly rectifying potassium channel KCNH2, sequence (Q12809 whole entry): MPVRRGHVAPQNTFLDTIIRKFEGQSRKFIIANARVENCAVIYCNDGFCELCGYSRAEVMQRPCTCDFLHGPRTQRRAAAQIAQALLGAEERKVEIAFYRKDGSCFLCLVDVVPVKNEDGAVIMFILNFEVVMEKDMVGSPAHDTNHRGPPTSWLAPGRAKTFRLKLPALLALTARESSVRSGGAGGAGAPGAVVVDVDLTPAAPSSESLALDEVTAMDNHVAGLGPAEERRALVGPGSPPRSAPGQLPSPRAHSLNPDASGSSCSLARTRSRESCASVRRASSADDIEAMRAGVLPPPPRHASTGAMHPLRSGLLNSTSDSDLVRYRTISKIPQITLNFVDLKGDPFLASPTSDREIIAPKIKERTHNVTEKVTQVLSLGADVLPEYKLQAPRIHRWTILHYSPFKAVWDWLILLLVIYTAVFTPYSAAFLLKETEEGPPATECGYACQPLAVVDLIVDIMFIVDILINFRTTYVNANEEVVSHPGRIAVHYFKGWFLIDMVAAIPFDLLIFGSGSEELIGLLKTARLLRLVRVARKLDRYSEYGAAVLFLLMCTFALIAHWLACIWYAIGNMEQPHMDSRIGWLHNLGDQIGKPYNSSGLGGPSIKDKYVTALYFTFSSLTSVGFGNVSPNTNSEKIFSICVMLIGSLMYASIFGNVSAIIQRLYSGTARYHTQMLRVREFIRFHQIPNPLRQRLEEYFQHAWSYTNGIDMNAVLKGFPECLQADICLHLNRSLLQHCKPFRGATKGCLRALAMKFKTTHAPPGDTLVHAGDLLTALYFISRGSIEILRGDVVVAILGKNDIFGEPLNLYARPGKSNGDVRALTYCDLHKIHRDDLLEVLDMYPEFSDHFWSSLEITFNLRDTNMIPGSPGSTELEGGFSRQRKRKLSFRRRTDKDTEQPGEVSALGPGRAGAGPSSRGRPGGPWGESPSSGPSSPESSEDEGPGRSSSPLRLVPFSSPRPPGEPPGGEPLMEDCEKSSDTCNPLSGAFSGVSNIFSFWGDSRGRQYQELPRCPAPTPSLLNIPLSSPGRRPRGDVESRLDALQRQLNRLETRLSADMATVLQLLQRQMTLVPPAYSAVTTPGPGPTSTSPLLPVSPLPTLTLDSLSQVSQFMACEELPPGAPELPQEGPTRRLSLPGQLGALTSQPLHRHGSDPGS
Growth hormone secretagogue receptor type 1, sequence (Q92847 whole entry): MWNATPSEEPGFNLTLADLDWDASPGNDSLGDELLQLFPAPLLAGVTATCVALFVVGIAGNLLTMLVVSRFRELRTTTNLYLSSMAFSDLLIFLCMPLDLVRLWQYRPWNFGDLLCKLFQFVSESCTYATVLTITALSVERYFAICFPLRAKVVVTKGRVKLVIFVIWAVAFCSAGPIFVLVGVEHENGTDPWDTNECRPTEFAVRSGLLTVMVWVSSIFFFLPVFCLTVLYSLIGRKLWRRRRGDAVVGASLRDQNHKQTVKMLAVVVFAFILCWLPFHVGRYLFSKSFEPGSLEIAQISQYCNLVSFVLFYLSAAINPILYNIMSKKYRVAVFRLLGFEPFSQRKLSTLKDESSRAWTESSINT
Kappa-type opioid receptor, sequence (P41145 whole entry): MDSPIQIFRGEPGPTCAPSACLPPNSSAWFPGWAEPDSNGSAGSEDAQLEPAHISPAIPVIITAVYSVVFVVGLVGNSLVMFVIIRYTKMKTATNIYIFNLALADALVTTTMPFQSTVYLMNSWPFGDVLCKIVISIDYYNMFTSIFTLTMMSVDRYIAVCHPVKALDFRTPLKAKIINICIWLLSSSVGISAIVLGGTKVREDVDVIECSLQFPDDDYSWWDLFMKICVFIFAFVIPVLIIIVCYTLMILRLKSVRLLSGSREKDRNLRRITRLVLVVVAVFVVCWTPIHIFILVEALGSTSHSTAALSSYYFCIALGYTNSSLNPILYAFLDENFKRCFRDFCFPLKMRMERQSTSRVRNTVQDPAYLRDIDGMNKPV
T4 sequence (P62813 whole entry): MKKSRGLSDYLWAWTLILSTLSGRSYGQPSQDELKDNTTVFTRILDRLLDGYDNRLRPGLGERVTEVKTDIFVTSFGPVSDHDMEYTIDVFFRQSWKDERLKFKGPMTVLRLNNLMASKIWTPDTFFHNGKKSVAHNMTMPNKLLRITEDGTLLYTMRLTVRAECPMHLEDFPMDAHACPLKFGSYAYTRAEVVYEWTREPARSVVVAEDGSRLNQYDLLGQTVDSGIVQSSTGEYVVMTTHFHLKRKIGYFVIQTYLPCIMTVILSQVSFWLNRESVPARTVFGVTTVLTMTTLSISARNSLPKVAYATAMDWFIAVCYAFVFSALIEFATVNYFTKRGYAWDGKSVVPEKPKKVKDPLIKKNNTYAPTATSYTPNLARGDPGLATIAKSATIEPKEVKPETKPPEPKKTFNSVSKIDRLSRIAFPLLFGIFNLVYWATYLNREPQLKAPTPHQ
Sodium-dependent dopamine transporter, sequence (Q01959 whole entry): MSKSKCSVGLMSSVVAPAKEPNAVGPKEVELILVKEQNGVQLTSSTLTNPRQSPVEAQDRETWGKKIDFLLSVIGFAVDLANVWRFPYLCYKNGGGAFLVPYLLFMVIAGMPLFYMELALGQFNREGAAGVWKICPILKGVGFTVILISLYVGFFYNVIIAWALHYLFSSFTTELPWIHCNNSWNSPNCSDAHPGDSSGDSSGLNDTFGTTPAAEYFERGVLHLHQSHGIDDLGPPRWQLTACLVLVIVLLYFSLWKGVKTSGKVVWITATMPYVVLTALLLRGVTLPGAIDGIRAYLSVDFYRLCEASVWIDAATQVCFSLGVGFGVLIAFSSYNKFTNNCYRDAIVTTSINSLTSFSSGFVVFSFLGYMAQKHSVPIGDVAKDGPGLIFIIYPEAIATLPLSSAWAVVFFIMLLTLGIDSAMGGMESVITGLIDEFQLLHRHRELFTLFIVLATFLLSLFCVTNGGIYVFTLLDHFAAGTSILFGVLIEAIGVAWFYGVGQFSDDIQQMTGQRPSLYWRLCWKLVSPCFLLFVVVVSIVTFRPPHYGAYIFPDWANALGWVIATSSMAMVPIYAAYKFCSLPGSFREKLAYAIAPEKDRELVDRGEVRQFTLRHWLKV
Cannabinoid receptor 1, sequence (P21554 whole entry): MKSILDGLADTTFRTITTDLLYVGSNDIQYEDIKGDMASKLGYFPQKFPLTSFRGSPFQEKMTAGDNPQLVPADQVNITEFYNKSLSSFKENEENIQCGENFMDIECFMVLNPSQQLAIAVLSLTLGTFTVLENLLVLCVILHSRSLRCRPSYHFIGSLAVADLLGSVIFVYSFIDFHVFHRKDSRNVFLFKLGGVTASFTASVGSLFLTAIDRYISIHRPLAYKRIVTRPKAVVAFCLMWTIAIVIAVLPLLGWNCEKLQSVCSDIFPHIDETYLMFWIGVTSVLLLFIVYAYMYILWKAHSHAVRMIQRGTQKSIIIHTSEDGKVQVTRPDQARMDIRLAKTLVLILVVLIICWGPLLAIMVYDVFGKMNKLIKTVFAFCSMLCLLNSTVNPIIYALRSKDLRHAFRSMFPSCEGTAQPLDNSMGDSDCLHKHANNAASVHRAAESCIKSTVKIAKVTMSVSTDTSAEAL
Vasopressin V1a receptor, sequence (P37288 whole entry): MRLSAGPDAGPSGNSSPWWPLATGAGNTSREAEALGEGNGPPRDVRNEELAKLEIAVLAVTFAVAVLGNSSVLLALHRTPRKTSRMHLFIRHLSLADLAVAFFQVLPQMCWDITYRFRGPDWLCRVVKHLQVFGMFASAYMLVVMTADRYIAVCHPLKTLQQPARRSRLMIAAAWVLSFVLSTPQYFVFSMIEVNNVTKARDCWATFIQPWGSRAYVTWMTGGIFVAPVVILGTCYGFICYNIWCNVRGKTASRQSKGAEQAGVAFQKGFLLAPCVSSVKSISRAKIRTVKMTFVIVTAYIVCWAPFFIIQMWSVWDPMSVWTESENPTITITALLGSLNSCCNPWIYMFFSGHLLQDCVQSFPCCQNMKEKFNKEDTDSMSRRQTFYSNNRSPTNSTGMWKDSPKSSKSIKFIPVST

As to `C[C@H](N)C(=O)N[C@@H](CCC(N)=O)C(=O)O` [ALANYL GLUTAMINE] (H-Ala-Gln-OH), the AC50 (on D(1A) dopamine receptor; in assay [1]; in assay [2]; at Cannabinoid receptor 1; in [3]; in assay [4]) was greater than 30 µM each time. The AC50 (in [5]; in [6]; on Vasopressin V1a receptor; in [7]; at D(3) dopamine receptor; in [8]) was greater than 30 µM throughout. Further, the half-maximal activity concentration (AC50) in assay [9], in assay [10], in [11] and in assay [12] was greater than 30 µM in each case.
In the case of `COc1cc(N)cn[n+]1-c1ccccc1` [AMEZINIUM METILSULFATE], the half-maximal activity concentration (AC50) (at D(1A) dopamine receptor; in assay [1]; in assay [2]; at Cannabinoid receptor 1; in [3]; in assay [4]) was greater than 30 µM throughout. The AC50 was 3.8 µM in [5]; greater than 30 µM in assay [6]; greater than 30 µM on Vasopressin V1a receptor; greater than 30 µM in assay [7]; greater than 30 µM on D(3) dopamine receptor; greater than 30 µM in assay [8]. Moreover, the half-maximal activity concentration (AC50) was greater than 30 µM in assay [9], greater than 30 µM in assay [10], greater than 30 µM in assay [11] and 5.7 µM in assay [12].
For the compound `CO/N=C(\C(=O)N[C@@H]1C(=O)N2C(C(=O)O)=C(CSc3nc(C)c(CC(=O)O)s3)CS[C@H]12)c1csc(N)n1` [CEFODIZIME], the AC50 (at D(1A) dopamine receptor; in assay [1]; in [2]; at Cannabinoid receptor 1; in assay [3]; in assay [4]) was greater than 30 µM each time. Moreover, the AC50 (in assay [5]; in [6]; on Vasopressin V1a receptor; in assay [7]; on D(3) dopamine receptor; in [8]) was greater than 30 µM in each case. The concentration at half-maximal activity (AC50) in assay [9], in assay [10], in [11] and in assay [12] was greater than 30 µM in each case.
Take `CO/N=C(\C(=O)N[C@@H]1C(=O)N2C(C(=O)[O-])=C(C[n+]3ccc(N)n3CCO)CS[C@H]12)c1csc(N)n1` [CEFOSELIS]: the AC50 (on D(1A) dopamine receptor; in [1]; in assay [2]; at Cannabinoid receptor 1; in assay [3]; in [4]) was greater than 30 µM in each case. Also, the AC50 (in assay [5]; in assay [6]; on Vasopressin V1a receptor; in [7]; on D(3) dopamine receptor; in assay [8]) was greater than 30 µM each time. For the same compound, the AC50 in assay [9], in assay [10], in assay [11] and in [12] was greater than 30 µM in each case.
`CCCO[C@H]1[C@@H]([C@@H](COCc2ccc(Cl)cc2)OCc2ccc(Cl)cc2)OC(OCC)[C@@H]1O` (some centres not stated) [CLOBENOSIDE]: the half-maximal activity concentration (AC50) is greater than 30 µM at D(1A) dopamine receptor; greater than 30 µM in assay [1]; greater than 30 µM in [2]; greater than 30 µM on Cannabinoid receptor 1; 27 µM in assay [3]; greater than 30 µM in assay [4]. For the same compound, the concentration at half-maximal activity (AC50) (in [5]; in assay [6]; at Vasopressin V1a receptor; in assay [7]; at D(3) dopamine receptor; in [8]) was greater than 30 µM each time. Besides, the concentration at half-maximal activity (AC50) in assay [9], in assay [10], in [11] and in assay [12] was greater than 30 µM in each case.
For `CC(=O)Oc1cccc2c1C(=O)c1c(OC(C)=O)cc(C(=O)O)cc1C2=O` [DIACEREIN], the concentration at half-maximal activity (AC50) (on D(1A) dopamine receptor; in assay [1]; in assay [2]; on Cannabinoid receptor 1; in [3]; in assay [4]) was greater than 30 µM in each case. Besides, the AC50 is greater than 30 µM in assay [5]; greater than 30 µM in assay [6]; 25 µM on Vasopressin V1a receptor; greater than 30 µM in [7]; greater than 30 µM on D(3) dopamine receptor; 19 µM in [8]. The AC50 in [9], in assay [11] and in assay [12] was greater than 30 µM throughout.
With `Cc1ccc(S(=O)(=O)NC(=O)N[C@H]2[C@H]3CC[C@@](C)([C@H]2O)C3(C)C)cc1` [GLIBORNURIDE], the AC50 (at D(1A) dopamine receptor; in [1]; in [2]; on Cannabinoid receptor 1; in assay [3]; in assay [4]) was greater than 30 µM throughout. In addition, the concentration at half-maximal activity (AC50) (in assay [5]; in [6]; at Vasopressin V1a receptor; in assay [7]; at D(3) dopamine receptor; in [8]) was greater than 30 µM each time. In addition, the AC50 in assay [9], in [10], in assay [11] and in assay [12] was greater than 30 µM each time.
For `CCN(CC)Cc1nccn1-c1ccc([N+](=O)[O-])cc1C(=O)c1ccccc1Cl` [NIZOFENONE], the half-maximal activity concentration (AC50) at D(1A) dopamine receptor was greater than 30 µM; in assay [1], greater than 30 µM; in [2] it was greater than 30 µM; on Cannabinoid receptor 1, greater than 30 µM; in assay [3], 6.3 µM; in assay [4] it was greater than 30 µM. Moreover, the half-maximal activity concentration (AC50) was 1.38 µM in assay [5]; greater than 30 µM in assay [6]; greater than 30 µM at Vasopressin V1a receptor; greater than 30 µM in assay [7]; greater than 30 µM on D(3) dopamine receptor; greater than 30 µM in assay [8]. Moreover, the half-maximal activity concentration (AC50) in assay [9], in [10], in assay [11] and in [12] was greater than 30 µM in each case.
Take `CN(C)CCOCC(=O)NC12CC3CC(CC(C3)C1)C2` [TROMANTADINE]: the half-maximal activity concentration (AC50) at D(1A) dopamine receptor was greater than 30 µM; in assay [1], greater than 30 µM; in assay [2], greater than 30 µM; at Cannabinoid receptor 1 it was greater than 30 µM; in assay [3], 11 µM; in assay [4], greater than 30 µM. The concentration at half-maximal activity (AC50) (in assay [5]; in [6]; on Vasopressin V1a receptor; in assay [7]; on D(3) dopamine receptor; in assay [8]) was greater than 30 µM throughout. For the same compound, the half-maximal activity concentration (AC50) in assay [9], in assay [10] and in [12] was greater than 30 µM in each case.

As a reminder, the AC50 is the concentration giving half of the maximal activity seen.
